From patent US12533394B2, “Compositions and methods for treating metabolic disorders” (GlycoMantra Inc., priority 2023, dated 2026)

Tests used:
Gal3 [1] = target: T1, Gal3 (Homo sapiens, UniProt P17931); assay: Solid-phase assay, blocking Gal3 binding (inhibition curves, FIG. 2)
Description: For the purposes of this disclosure, an “inhibition curve” is a graphical representation used in pharmacology and biochemistry to show how an inhibitor affects the activity of an enzyme, a biological process, or the like. Typically, an inhibition curve plots the concentration of an inhibitor on the x-axis and the corresponding reduction in an enzyme activity (or another measurable response) on the y-axis. An inhibition curve may help visualize the relationship between inhibitor concentration and its effectiveness. As a nonlimiting example, an inhibition curve may be used to determine a half-maximal inhibitory concentration or IC50 value. For the purposes of this disclosure, half-maximal inhibitory concentration or IC50 is the concentration of an inhibitor needed to reduce the activity of a receptor or an enzyme by 50%. A small IC50 value typically indicates a stronger binding affinity between an inhibitor and its target, and vice versa. IC50 is a commonly used indication regarding a drug's efficacy and potency and is often used in pharmacological research. For the purposes of this disclosure, drug potency is the amount of a drug needed to produce a given effect. […] It is often measured using the EC50, i.e., the concentration at which 50% of the maximum effect is observed. […]

Gal3 [2] = target: T1, Gal3; conditions: Table 1, comparison galectin antagonists; cited from earlier work

T1 sequence (P17931 whole entry, species assumed): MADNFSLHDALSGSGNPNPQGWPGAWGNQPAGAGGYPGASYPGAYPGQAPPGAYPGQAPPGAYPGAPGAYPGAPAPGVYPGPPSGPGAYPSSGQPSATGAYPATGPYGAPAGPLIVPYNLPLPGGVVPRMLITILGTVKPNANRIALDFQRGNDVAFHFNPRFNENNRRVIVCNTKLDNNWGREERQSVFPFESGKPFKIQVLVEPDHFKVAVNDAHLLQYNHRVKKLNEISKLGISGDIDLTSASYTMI

Structure (SMILES)	IC50 (Gal3 [1])	Specificity to Gal3 (Gal3 [2])
CC(=O)N[C@H]1C(O)O[C@H](CO)[C@H](O)[C@@H]1O[C@@H]1O[C@H](CO)[C@H](O)[C@H](O)[C@H]1O (some centres unmarked) [synthetic TFD, Galβ1-3GalNAc]	200 µM	–
OC[C@H]1O[C@@H](S[C@@H]2O[C@H](CO)[C@H](O)[C@H](n3cc(-c4cccc(F)c4)nn3)[C@H]2O)[C@H](O)[C@@H](n2cc(-c3cccc(F)c3)nn2)[C@H]1O [TD139]	–	No
